IC50 data for nine compounds are collected here from patent US6653340B1, “Compounds useful in the complement, coagulat and kallikrein pathways and method for their preparation” (BioCryst Pharmaceuticals, Inc., priority 1997, dated 2003).

Like-named read-outs stand apart in the source and are kept apart here.

As a reminder, the IC50 is the midpoint of a concentration-inhibition curve.

Test [1] addresses Plasmin (Homo sapiens, UniProt P00747). As to the kind of experiment: Plasmin inhibition assay (thioester substrate). It is filed as biochemical. Conditions: plasmin 0.004 units/mL; read-out: Plasmin (Serine Protease Inhibitory Data, IC50). The method, then: (§1) The compounds to be tested were dissolved in a stock solution of DMSO at 10.0 or 100 mM. A portion of this stock solution was added to assay buffer in a final volume of 100 μL containing the enzyme of interest. Controls included buffer alone and enzyme solutions to which DMSO was added. Substrate was added to the reaction wells immediately or after incubation at room temperature. The reaction rates were measured spectrophotometrically by the generation of product at 405 nm for 200 sec. Background absorbance at 690 nm was measured and subtracted from the absorbance at 405 nm for each well.
(§2) The reaction rate for enzyme alone was compared to the rate of enzyme in the presence of inhibitor and the percent inhibition was calculated as shown below:
(§3) Percent Inhibition=[Rate without inhibitor−Rate with inhibitor)/(Rate without inhibitor)]×100
(§4) Compounds in the examples were tested a minimum of three times.
(§5) Thrombin was assayed at 12.5 U/ml using 0.37 mM N-Benzoyl-Phe-Val-Arg-p-nitroanilide (Svendsen, L.; Blomback B.; Blomback, M.; Olsson, P. I. Substrate for determination of trypsin, thrombin and thrombin-like enzymes. Folia Haematol. 1972, 98, 446-454.) as the substrate in 100 mM HEPES, 10 mM CaCl2, 10% DMSO, pH 7.5. Factor Xa, 0.5 U/mL, was assayed in 50 mM HEPES, 150 mM NaCl, 10 mM CaCl2, pH 8.0 using Chromozyme X, 0.17 mM, as the substrate. Plasmin (0.004 units/mL), factor XIIa ([…]) and kallikrein (0.02 units/mL were assayed using modifications of the techniques originally described by McRae, et al. (Biochemistry. 1981, 20, 7196-7206). The assays were run in 200 mM triethanolamine, pH 7.8 and 100 mM Tris-HCl, 100 mM EDTA, […] using Z-Lys-SBzl, 0.13 mM and […], 0.16 mM, as substrates, respectively.

The target in test [2] is Thrombin (Homo sapiens, UniProt P00734). Description: Thrombin inhibition assay (N-Benzoyl-Phe-Val-Arg-p-nitroanilide substrate). It is filed as biochemical. Conditions: thrombin 12.5 U/ml, pH 7.5; read-out: Thrombin (Serine Protease Inhibitory Data, IC50). The method, then:
as §1, §2, §3, §4, §5

In test [3] the target is T1, C1s (Homo sapiens, UniProt P09871).
T1 sequence (P09871 16-688): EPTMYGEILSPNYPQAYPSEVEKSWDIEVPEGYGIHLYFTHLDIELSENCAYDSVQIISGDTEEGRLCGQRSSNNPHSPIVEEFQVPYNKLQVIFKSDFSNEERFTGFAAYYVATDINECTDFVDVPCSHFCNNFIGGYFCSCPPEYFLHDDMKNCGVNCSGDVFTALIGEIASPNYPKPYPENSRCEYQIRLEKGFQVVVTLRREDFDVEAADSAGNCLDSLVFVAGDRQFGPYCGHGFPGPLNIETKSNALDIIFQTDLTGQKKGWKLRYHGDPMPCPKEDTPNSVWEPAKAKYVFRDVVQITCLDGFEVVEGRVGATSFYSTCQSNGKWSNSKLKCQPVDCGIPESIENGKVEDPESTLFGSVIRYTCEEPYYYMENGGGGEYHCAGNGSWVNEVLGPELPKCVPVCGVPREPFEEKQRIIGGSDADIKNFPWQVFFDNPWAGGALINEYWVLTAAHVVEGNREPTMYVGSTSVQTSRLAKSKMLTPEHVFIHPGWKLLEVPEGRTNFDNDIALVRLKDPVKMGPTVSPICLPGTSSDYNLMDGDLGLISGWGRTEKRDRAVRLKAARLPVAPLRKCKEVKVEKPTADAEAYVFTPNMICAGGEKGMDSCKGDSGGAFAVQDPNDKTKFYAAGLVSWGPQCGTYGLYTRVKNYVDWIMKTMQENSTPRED
As to the kind of experiment: C1s esterolytic inhibition assay (Z-Lys-SBzl substrate). The class given is biochemical. The settings on record: Z-Lys-SBzl 1.29 mM, C1s 3 to 13 nM; read-out: Cls (Serine Protease Inhibitory Data, IC50). The procedure: as §1, §2, §3, §4
C1s esterolytic activity was assayed using a modification of the technique originally described by Kam using Z-Lys-SBzl, 1.29 mM as substrate and C1s at 3 to 13 nM.

Test [4] addresses T2, Factor D (Homo sapiens, UniProt P00746). Description: Factor D esterolytic inhibition assay (Z-Lys-SBzl substrate). The settings on record: Z-Lys-SBzl 1.29 mM, pH 7.5, 10% DMSO; read-out: Factor D (Serine Protease Inhibitory Data, IC50). Also on record: Factor D was purified from the urine of a patient with Fanconi syndrome by ion exchange chromatography; from tissue; host or cells: urine of a patient with Fanconi syndrome. It is filed as biochemical.
Description: A modification of the procedure of Volanakis (Volankis, J. E.; Barnum, S. R.; Kilpatrick, J. M. Purification and properties of human factor D. Methods in Enzymol. 1993, 223, 82-97) for purification of Factor D was utilized as described by Yamauchi (Yamauchi, Y.; Stevens, J. W.; Macon, K. J.; Volanakis, J. E. Recombinant and native zymogen forms of human complement factor D. J. Immunol. 1994, 152, 3645-3653. Briefly, Factor D was purified from the urine of a patient with Fanconi syndrome by ion exchange chromatography using BioRex 70 and two rounds of ion-exchange chromatography in a Pharmacia FPLC system using a HR5/5 Mono S column.
as §1, §2, §3, §4
An established esterolytic assay for the measurement of Factor D activity and inhibition of Factor D activity was used (Kam, C. M.; McRae, B. J.; Harper, J. W.; Niemann, M. A.; Volanakis, J. E.; Powers, J. C. Human complement proteins D, C2, and B Active site mapping with peptide thioester substrates. J Biol. Chem. 1987, 262, 3444-3451). […] Hydrolysis of this compound by Factor D liberated a free sulfhydryl group which is then reacted with 5,5′-dithiobis(2nitrobenzoic acid) producing an intense yellow color (Habeeb, A. F. S. A. Reaction of protein sulfhydryl groups with Ellman's Reagent. Methods in Enzymol. 1976, 25, 457-464.). The assays were performed in 96 well microtiter plates and rates of hydrolysis were monitored at 405 nm in a Anthos Labtec HT2 plate reader. Hydrolysis rates were reported as change in mOD/min. The assay was conducted in 100 mM HEPES, 500 mM NaCl, pH 7.5 containing 10% DMSO in a final volume of 200 μL per well.

For test [5], the target named is T3, factor XIIa (Homo sapiens, UniProt P00748).
T3 sequence (P00748 373-615 limits assumed): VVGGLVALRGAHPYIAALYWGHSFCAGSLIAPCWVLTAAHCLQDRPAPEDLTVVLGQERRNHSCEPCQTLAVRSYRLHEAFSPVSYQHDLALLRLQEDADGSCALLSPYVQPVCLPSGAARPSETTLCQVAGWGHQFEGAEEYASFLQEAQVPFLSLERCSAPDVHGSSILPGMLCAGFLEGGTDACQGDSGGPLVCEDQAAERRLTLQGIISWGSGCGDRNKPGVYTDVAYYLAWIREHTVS
As to the kind of experiment: Factor XIIa inhibition assay (thioester substrate). It is filed as biochemical. The settings on record: read-out: XIIa (Serine Protease Inhibitory Data, IC50). The method, then: as §1, §2, §3, §4, §5

For test [6], the target named is kallikrein (Homo sapiens, UniProt P03952). Description: Kallikrein inhibition assay (thioester substrate). It is filed as biochemical. The settings on record: kallikrein 0.02 units/mL; read-out: Kallikrein (Serine Protease Inhibitory Data, IC50). The procedure:
as §1, §2, §3, §4, §5

Test [7] has as its target Factor Xa (Homo sapiens, UniProt P00742). As to the kind of experiment: Factor Xa inhibition assay (Chromozyme X substrate). The class given is biochemical. The settings on record: Factor Xa 0.5 U/mL, pH 8.0; read-out: Xa (Serine Protease Inhibitory Data, IC50). The procedure: as §1, §2, §3, §4, §5
In test [8] the target is Factor B (Homo sapiens, UniProt P00751). Conditions: Ikari, N. et al. Immunology 49: 685-691, 1983; cited from earlier work.
Factor B, sequence (P00751 26-764): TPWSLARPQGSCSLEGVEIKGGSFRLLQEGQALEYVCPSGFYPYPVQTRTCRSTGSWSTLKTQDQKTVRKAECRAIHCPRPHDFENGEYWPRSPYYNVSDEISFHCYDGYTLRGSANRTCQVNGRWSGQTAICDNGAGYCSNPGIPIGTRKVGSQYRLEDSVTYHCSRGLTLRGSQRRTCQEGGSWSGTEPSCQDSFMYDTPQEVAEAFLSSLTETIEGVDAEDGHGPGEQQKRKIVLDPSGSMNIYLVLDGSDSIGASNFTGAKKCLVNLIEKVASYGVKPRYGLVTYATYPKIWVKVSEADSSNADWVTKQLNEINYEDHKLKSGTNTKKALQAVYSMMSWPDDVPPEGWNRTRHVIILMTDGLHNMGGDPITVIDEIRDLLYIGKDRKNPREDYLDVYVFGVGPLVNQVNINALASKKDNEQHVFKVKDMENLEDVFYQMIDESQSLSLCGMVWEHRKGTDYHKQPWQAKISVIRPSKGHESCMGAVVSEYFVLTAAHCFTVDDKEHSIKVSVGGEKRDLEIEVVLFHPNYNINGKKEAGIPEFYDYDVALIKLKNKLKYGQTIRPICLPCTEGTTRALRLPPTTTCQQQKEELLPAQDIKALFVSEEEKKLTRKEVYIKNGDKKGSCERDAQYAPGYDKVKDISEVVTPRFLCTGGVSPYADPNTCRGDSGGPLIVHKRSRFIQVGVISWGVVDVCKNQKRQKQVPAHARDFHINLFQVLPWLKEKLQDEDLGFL
The target in test [9] is T2, Factor D. The settings on record: Inagi, R et al, Nephron 66: 285-290, 1994; cited from earlier work.

Factor Xa, sequence (P00742 235-488 limits assumed): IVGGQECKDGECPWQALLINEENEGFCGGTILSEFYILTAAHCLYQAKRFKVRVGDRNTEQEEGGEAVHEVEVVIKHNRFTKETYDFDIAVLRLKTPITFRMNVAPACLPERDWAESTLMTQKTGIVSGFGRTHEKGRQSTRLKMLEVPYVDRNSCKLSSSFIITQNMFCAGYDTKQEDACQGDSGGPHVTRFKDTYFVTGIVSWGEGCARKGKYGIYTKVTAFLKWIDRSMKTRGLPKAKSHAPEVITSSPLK
Factor Xa, sequence (P00742 41-179 partner limits assumed): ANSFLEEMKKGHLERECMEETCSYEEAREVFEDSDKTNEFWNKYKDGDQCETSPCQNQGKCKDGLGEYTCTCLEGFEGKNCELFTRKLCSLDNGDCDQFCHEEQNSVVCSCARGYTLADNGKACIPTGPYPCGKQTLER
T2 sequence (P00746 26-253): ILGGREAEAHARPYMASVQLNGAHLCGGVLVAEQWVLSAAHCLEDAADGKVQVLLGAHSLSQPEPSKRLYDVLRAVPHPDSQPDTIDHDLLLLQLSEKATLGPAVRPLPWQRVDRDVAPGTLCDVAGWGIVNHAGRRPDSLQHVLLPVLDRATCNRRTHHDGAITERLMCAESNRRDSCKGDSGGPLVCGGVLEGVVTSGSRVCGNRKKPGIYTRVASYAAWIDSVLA
kallikrein, sequence (P03952 whole entry): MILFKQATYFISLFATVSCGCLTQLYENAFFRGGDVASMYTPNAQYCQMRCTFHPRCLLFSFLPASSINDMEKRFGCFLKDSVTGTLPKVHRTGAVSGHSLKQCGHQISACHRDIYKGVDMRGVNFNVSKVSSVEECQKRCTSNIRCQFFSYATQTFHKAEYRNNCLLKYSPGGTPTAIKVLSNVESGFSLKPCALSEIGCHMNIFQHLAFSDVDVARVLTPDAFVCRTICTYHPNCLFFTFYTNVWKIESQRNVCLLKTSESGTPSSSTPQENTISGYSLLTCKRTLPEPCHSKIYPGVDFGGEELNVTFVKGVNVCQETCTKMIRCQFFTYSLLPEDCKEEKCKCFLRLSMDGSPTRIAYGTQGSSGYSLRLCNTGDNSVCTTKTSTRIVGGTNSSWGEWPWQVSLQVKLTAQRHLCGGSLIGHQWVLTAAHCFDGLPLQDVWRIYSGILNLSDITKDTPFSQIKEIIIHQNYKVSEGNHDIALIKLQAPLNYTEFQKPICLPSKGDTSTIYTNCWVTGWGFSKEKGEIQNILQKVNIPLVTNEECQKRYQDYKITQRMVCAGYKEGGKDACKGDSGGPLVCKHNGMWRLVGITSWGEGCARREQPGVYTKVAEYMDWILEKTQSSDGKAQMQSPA
Plasmin, sequence (P00747 581-810 limits assumed, species assumed): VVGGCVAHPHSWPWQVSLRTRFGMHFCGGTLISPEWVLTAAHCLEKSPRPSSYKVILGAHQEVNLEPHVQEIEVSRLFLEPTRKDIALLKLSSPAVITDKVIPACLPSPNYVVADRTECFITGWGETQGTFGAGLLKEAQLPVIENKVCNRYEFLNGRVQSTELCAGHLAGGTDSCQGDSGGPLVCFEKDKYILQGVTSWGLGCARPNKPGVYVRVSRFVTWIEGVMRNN
Plasmin, sequence (P00747 97-580 partner limits assumed, species assumed): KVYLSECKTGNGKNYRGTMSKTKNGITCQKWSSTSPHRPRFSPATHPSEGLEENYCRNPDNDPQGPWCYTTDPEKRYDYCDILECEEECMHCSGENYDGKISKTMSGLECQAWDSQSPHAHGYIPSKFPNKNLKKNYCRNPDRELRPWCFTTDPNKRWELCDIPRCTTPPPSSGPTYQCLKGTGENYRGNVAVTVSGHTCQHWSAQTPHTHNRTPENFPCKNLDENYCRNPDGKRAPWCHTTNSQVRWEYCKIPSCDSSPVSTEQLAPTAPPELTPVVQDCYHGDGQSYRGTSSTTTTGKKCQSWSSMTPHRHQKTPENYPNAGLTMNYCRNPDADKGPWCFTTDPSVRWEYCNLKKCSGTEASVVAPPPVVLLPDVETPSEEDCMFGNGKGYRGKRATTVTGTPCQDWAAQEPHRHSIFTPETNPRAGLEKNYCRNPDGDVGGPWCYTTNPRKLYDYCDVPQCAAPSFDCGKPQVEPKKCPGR

For the compound `N=C(N)c1cc2ccc(OC(=O)c3ccco3)cc2o1` [Example 1, 2-Amidino-6-benzofuranyl 2-furanylcarboxylate], the IC50 in [1] was 42 nM; in test [2], 57 nM; in test [3], 37 nM; in test [4], 3650 nM; in test [5] it was 20 nM; in test [6], 5.4 nM. Moreover, the IC50 in test [7] was 60 nM.

`N=C(N)c1nc2ccc(OC(=O)c3ccsc3)cc2s1` [Example 16]: the IC50 in test [1] is 21 nM; in [2] it was 42 nM; in test [3], 2.5 nM; in test [4], 205 nM; in test [5], 10 nM; in [6], 2.6 nM. Further, the IC50 in test [7] stood at 31 nM.

`N=C(N)c1cc2cc(OC(=O)c3ccco3)ccc2o1` [Example 3]: the IC50 in [1] is 23 nM; in test [2] it was 65 nM; in [3], 56 nM; in test [4], 460 nM; in test [5], 20.2 nM; in test [6] it was 5.4 nM. Also, in test [7], the IC50 amounted to 4 nM.

For the compound `N=C(N)c1nc2ccc(OC(=O)c3ccccc3)cc2s1` [Example 12], the IC50 in test [1] worked out at 37 nM; in test [2], 44 nM; in test [3], 5.3 nM; in test [4], 564 nM; in test [5], 13 nM; in [6], 3.8 nM. The IC50 in [7] is 52 nM.

As to `N=C(N)c1nc2ccc(OC(=O)c3ccco3)cc2s1` [Example 13], the IC50 in test [1] was found to be 2 nM; in [2], 25 nM; in test [3] it was 3 nM; in [4], 421 nM; in test [5], 9 nM; in [6], 4 nM. Also, in test [7], the IC50 is 1 nM.

On to `N=C(N)c1ccc2cc(OC(=O)c3ccc(N=C(N)N)cc3)ccc2c1` [nafamostat, 6′-amidino-2-naphthyl-p-guanidinobenzoate, reference compound], for which the IC50 is 678 nM in test [2]; 22 nM in [3]; 60000 nM in [8]; 25000 nM in test [9]; 11000 nM in test [4]; 114 nM in test [5]. Moreover, the IC50 in [6] was 12 nM; in [7], 1010 nM.

In the case of `N=C(N)c1nc2ccc(OC(=O)c3ccoc3)cc2s1` [Example 15], the IC50 in test [1] worked out at 15 nM; in test [2], 15 nM; in [3], 2 nM; in test [4], 286 nM; in test [5] it was 6 nM; in test [6] it was 5 nM. Further, in test [7], the IC50 was found to be 22 nM.

For the compound `N=C(N)c1nc2ccc(OC(=O)c3cccs3)cc2s1` [Example 14], the IC50 in test [1] was 6 nM; in test [2], 18 nM; in [3], 2 nM; in test [4], 250 nM; in [5], 5 nM; in test [6], 2 nM. The half-inhibitory concentration (IC50) in test [7] was found to be 12 nM.

Turning to `N=C(N)C1=Cc2ccc(OC(=O)c3ccco3)cc2OC1` [Example 18, 3-amidino-7-(2H-1-benzopyran) 2-furancarboxylate methanesulfonate], the concentration for half-maximal inhibition (IC50) is 1.5 nM in test [1]; 51 nM in test [2]; 2.9 nM in test [3]; 347 nM in test [4]; 6.1 nM in test [5]; 3.6 nM in test [6]. Moreover, in [7], the IC50 came out at 3.9 nM.
